Test results from patent US20240360144A1, “PYRAZOLOPYRIMIDINE ESTER COMPOUND” (Shanghai Maius Pharmaceutical Co. Ltd., priority 2021, published 2024).
Read-outs that look alike come from different tables or passages of the source.

Assay: Pharmacokinetic assays of compounds after oral gavage administration to rats
Type: in vivo, male SD rats
Parameters: AUMC(0-t) / AUMC(0-∞): unit not given here
Conditions: for AUC as percentage of that of 4-AAM administered at the same molar amount: relative to 4-AAM directly administered
Method: Example 13: Pharmacokinetic Assays of Compounds
Instruments: ultra high performance liquid chromatography (Acquity UPLC, Waters) system; triple quadrupole mass spectrometer (Qtrap 5500, Sciex); high-speed refrigerated centrifuge (5430R, Eppendorf).
Chromatography Conditions: Column: Waters BEH C18 2.1×50 mm ([…]); Column Temperature: 45° C.; Mobile Phase: 0.1% aqueous solution of formic acid (A)/acetonitrile; Gradient: see Table 2 below: […]
Mass Spectrometry Condition: Mode: positive ion multiple reaction monitoring (MRM); Curtain Gas: 45 psi; Gas 1: 45 psi; Gas 2: 45 psi; Ion Source Temperature: 500° C.; Ion Source Voltage: 5000 V.
Experimental Animals: male SD rats, weighing 200-240 grams, fasting overnight before experiments.
Each suspension is prepared before administration.
Each sample was placed in an ice bath, centrifuged for plasma collection, frozen and stored.
Plasma Drug Concentration Data and Calculation of Pharmacokinetic Parameters:
Plasma drug concentration data was processed using MultiQuan 3.0 (Sciex), and pharmacokinetic parameters were calculated using the DAS 2.0 software. Plasma drug concentrations were measured in ug/L.

[1] = male SD rats, oral gavage, 30.0 mg/kg, suspension in 0.5% CMC-Na, plasma

SMILES | AUC(0-t) [1] [ng·h/mL] | AUC(0-∞) [1] [ng·h/mL] | AUMC(0-t) [1] | AUMC(0-∞) [1] | CLz/F [1] [mL/min/kg] | Cmax [1] [ng/mL] | MRT(0-t) [1] [h] | MRT(0-∞) [1] [h] | Tmax [1] [h] | VRT(0-t) [1] [h^2] | VRT(0-∞) [1] [h^2] | t½z [1] [h] | mean retention time (rats, oral gavage) [h] | time to peak concentration (rats, oral gavage) [h] | AUC compared with 4-AAM administered at the same molar amount (rats, oral gavage, in words) | AUC as percentage of that of 4-AAM administered at the same molar amount (rats, oral gavage) [%] | further results
C=CC(=O)N1CCC[C@@H](n2nc(-c3ccc(Oc4ccccc4)cc3)c3c(NC(=O)OCCCCCC)ncnc32)C1 [Compound 5] | 584.0 | 587.1 | 1659.5 | 1696.7 | 852 | 143.9 | 2.8 | 2.9 | 2.0 | 3.0 | 3.5 | 1.3 | – | – | – | – | –
C=CC(=O)N1CCC[C@@H](n2nc(-c3ccc(Oc4ccccc4)cc3)c3c(NC(=O)OCCCC)ncnc32)C1 [Compound 3] | 1366.7 | 1375.6 | 3939.9 | 4052.0 | 363 | 304.4 | 2.9 | 2.9 | 2.0 | 3.3 | 3.8 | 1.3 | 2.9 | 2 | much greater AUC | 180 | hydrolysis in the blood plasma into the 4-amino active metabolite (4-AAM) (rats, after oral absorption, in words): highest rate
C=CC(=O)N1CCC[C@@H](n2nc(-c3ccc(Oc4ccccc4)cc3)c3c(N)ncnc32)C1 [Compound 4-AAM, 1-[(3R)-3-[4-amino-3-(4-phenoxyphenyl)-1H-pyrazolo[3,4-D]pyrimidin-1-yl]-1-piperidinyl]-2-propen-1-one, reference compound] | – | – | 1316.6 | 2805.6 | – | – | – | – | – | 2.0 | 47.6 | 8.9 | – | – | – | – | AUC(0-inf) (rat, male SD rats, oral gavage, 30.0 mg/kg, suspension in 0.5% CMC-Na, plasma): 822 ng·h/mL; AUC(0-t) (rat, male SD rats, oral gavage, 30.0 mg/kg, suspension in 0.5% CMC-Na, plasma, read-out: AUC(0-t)): 758 ng·h/mL; Cmax (rat, male SD rats, oral gavage, 30.0 mg/kg, suspension in 0.5% CMC-Na, plasma, read-out: Cmax): 312 ng/mL; MRT last (rat, male SD rats, oral gavage, 30.0 mg/kg, suspension in 0.5% CMC-Na, plasma, read-out: MRT(0-t)): 1.7 h; MRT inf (rat, male SD rats, oral gavage, 30.0 mg/kg, suspension in 0.5% CMC-Na, plasma, read-out: MRT(0-∞)): 3.4 h
C=CC(=O)N1CCC[C@@H](n2nc(-c3ccc(Oc4ccccc4)cc3)c3c(NC(=O)OC(C)C)ncnc32)C1 [Compound 1] | 1038.6 | 1059.6 | 2950.4 | 3200.9 | 472 | 257.2 | 2.8 | 3.0 | 1.0 | 4.6 | 6.3 | 1.7 | 2.8 | 1 | much greater AUC | – | –
C=CC(=O)N1CCC[C@@H](n2nc(-c3ccc(Oc4ccccc4)cc3)c3c(NC(=O)OCCC)ncnc32)C1 [Compound 2] | 663.0 | 706.3 | 2844.3 | 3495.04 | 708 | 111.0 | 4.29 | 4.9 | 2.0 | 7.2 | 13.5 | 2.338 | 4.3 | 2 | – | 88 | –
C=CC(=O)N1CCC[C@@H](n2nc(-c3ccc(Oc4ccccc4)cc3)c3c(NC(=O)OCC(C)C)ncnc32)C1 [Compound 4] | 964.1 | 976.4 | 2405.5 | 2586.7 | 512 | 256.7 | 2.5 | 2.6 | 2.0 | 2.9 | 4.8 | 2.5 | 2.5 | 2 | much greater AUC | 127 | –
